According to PubChem BioAssay (NCI):
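A five-concentration, 48-hour dose response in 96-well plates underlies each endpoint, interpolated linearly between surrounding concentrations. Abbreviation: GI50, concentration required for 50% inhibition of growth. Definition used: TGI = concentration required for complete inhibition of growth.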

Assays:
Test in all cases: NCI-60 cell line screen, 48 h
786-0 renal = test system: 786-0 renal
A498 renal = test system: A498 renal
A549 NSCLC = test system: A549 NSCLC
ACHN renal = test system: ACHN renal
BT-549 breast = test system: BT-549 breast
CAKI-1 renal = test system: CAKI-1 renal
CCRF-CEM leukemia = test system: CCRF-CEM leukemia
COLO 205 colon = test system: COLO 205 colon
DU-145 prostate = test system: DU-145 prostate
EKVX NSCLC = test system: EKVX NSCLC
HCC-2998 colon = test system: HCC-2998 colon
HCT-116 colon = test system: HCT-116 colon
HCT-15 colon = test system: HCT-15 colon
HL-60(TB) leukemia = test system: HL-60(TB) leukemia
HOP-62 NSCLC = test system: HOP-62 NSCLC
HOP-92 NSCLC = test system: HOP-92 NSCLC
HS 578T breast = test system: HS 578T breast
HT29 colon = test system: HT29 colon
IGROV1 ovarian = test system: IGROV1 ovarian
KM12 colon = test system: KM12 colon
LOX IMVI melanoma = test system: LOX IMVI melanoma
M14 melanoma = test system: M14 melanoma
MALME-3M melanoma = test system: MALME-3M melanoma
MCF7 breast = test system: MCF7 breast
MDA-MB-231 breast = test system: MDA-MB-231 breast
MDA-MB-435 = test system: MDA-MB-435
MOLT-4 leukemia = test system: MOLT-4 leukemia
NCI-H226 lung = test system: NCI-H226 lung
NCI-H23 lung = test system: NCI-H23 lung
NCI-H460 lung = test system: NCI-H460 lung
NCI-H522 lung = test system: NCI-H522 lung
NCI/ADR-RES ovarian = test system: NCI/ADR-RES ovarian
OVCAR-3 ovarian = test system: OVCAR-3 ovarian
OVCAR-4 ovarian = test system: OVCAR-4 ovarian
OVCAR-5 ovarian = test system: OVCAR-5 ovarian
OVCAR-8 ovarian = test system: OVCAR-8 ovarian
PC-3 prostate = test system: PC-3 prostate
RPMI-8226 leukemia = test system: RPMI-8226 leukemia
RXF 393 renal = test system: RXF 393 renal
SF-268 CNS = test system: SF-268 CNS
SF-295 CNS = test system: SF-295 CNS
SF-539 CNS = test system: SF-539 CNS
SK-MEL-2 melanoma = test system: SK-MEL-2 melanoma
SK-MEL-28 melanoma = test system: SK-MEL-28 melanoma
SK-MEL-5 melanoma = test system: SK-MEL-5 melanoma
SK-OV-3 ovarian = test system: SK-OV-3 ovarian
SN12C renal = test system: SN12C renal
SNB-19 CNS = test system: SNB-19 CNS
SNB-75 CNS = test system: SNB-75 CNS
SR leukemia = test system: SR leukemia
SW-620 colon = test system: SW-620 colon
T-47D breast = test system: T-47D breast
TK-10 renal = test system: TK-10 renal
U251 CNS = test system: U251 CNS
UACC-257 melanoma = test system: UACC-257 melanoma
UACC-62 melanoma = test system: UACC-62 melanoma
UO-31 renal = test system: UO-31 renal

Clc1ccc(-c2ccc(CNCC3CCNCC3)o2)c(-c2ccccc2)c1
GI50 (786-0 renal): 1580 nM
TGI (786-0 renal): 3010 nM
GI50 (A498 renal): 1710 nM
TGI (A498 renal): 3240 nM
GI50 (A549 NSCLC): 1790 nM
TGI (A549 NSCLC): 3560 nM
GI50 (ACHN renal): 1670 nM
TGI (ACHN renal): 3060 nM
GI50 (BT-549 breast): 1710 nM
TGI (BT-549 breast): 3200 nM
GI50 (CAKI-1 renal): 1510 nM
TGI (CAKI-1 renal): 2900 nM
GI50 (CCRF-CEM leukemia): 557 nM
TGI (CCRF-CEM leukemia): 2310 nM
GI50 (COLO 205 colon): 1640 nM
TGI (COLO 205 colon): 3360 nM
GI50 (DU-145 prostate): 1820 nM
TGI (DU-145 prostate): 3330 nM
GI50 (EKVX NSCLC): 1590 nM
TGI (EKVX NSCLC): 2950 nM
GI50 (HCC-2998 colon): 1620 nM
TGI (HCC-2998 colon): 3200 nM
GI50 (HCT-116 colon): 1240 nM
TGI (HCT-116 colon): 2540 nM
GI50 (HCT-15 colon): 1190 nM
TGI (HCT-15 colon): 2600 nM
GI50 (HL-60(TB) leukemia): 1800 nM
TGI (HL-60(TB) leukemia): 3690 nM
GI50 (HOP-62 NSCLC): 1650 nM
TGI (HOP-62 NSCLC): 3270 nM
GI50 (HOP-92 NSCLC): 1010 nM
TGI (HOP-92 NSCLC): 2230 nM
GI50 (HS 578T breast): 1630 nM
TGI (HS 578T breast): 3420 nM
GI50 (HT29 colon): 1440 nM
TGI (HT29 colon): 2890 nM
GI50 (IGROV1 ovarian): 1390 nM
TGI (IGROV1 ovarian): 2930 nM
GI50 (KM12 colon): 1790 nM
TGI (KM12 colon): 3620 nM
GI50 (LOX IMVI melanoma): 1540 nM
TGI (LOX IMVI melanoma): 3030 nM
GI50 (M14 melanoma): 1630 nM
TGI (M14 melanoma): 3110 nM
GI50 (MALME-3M melanoma): 1880 nM
TGI (MALME-3M melanoma): 3540 nM
GI50 (MCF7 breast): 1560 nM
TGI (MCF7 breast): 3300 nM
GI50 (MDA-MB-231 breast): 1360 nM
TGI (MDA-MB-231 breast): 2850 nM
GI50 (MDA-MB-435): 1610 nM
TGI (MDA-MB-435): 3050 nM
GI50 (MOLT-4 leukemia): 1540 nM
TGI (MOLT-4 leukemia): 3420 nM
GI50 (NCI-H226 lung): 1660 nM
TGI (NCI-H226 lung): 3680 nM
GI50 (NCI-H23 lung): 1710 nM
TGI (NCI-H23 lung): 3320 nM
GI50 (NCI-H460 lung): 1710 nM
TGI (NCI-H460 lung): 3330 nM
GI50 (NCI-H522 lung): 1850 nM
TGI (NCI-H522 lung): 3630 nM
GI50 (NCI/ADR-RES ovarian): 1710 nM
TGI (NCI/ADR-RES ovarian): 3300 nM
GI50 (OVCAR-3 ovarian): 1740 nM
TGI (OVCAR-3 ovarian): 3460 nM
GI50 (OVCAR-4 ovarian): 1850 nM
TGI (OVCAR-4 ovarian): 3540 nM
GI50 (OVCAR-5 ovarian): 1610 nM
TGI (OVCAR-5 ovarian): 3040 nM
GI50 (OVCAR-8 ovarian): 1870 nM
TGI (OVCAR-8 ovarian): 3500 nM
GI50 (PC-3 prostate): 1380 nM
TGI (PC-3 prostate): 2760 nM
GI50 (RPMI-8226 leukemia): 1300 nM
TGI (RPMI-8226 leukemia): 3190 nM
GI50 (RXF 393 renal): 1360 nM
TGI (RXF 393 renal): 2790 nM
GI50 (SF-268 CNS): 1620 nM
TGI (SF-268 CNS): 3270 nM
GI50 (SF-295 CNS): 1570 nM
TGI (SF-295 CNS): 3000 nM
GI50 (SF-539 CNS): 1650 nM
TGI (SF-539 CNS): 3120 nM
GI50 (SK-MEL-2 melanoma): 1760 nM
TGI (SK-MEL-2 melanoma): 3310 nM
GI50 (SK-MEL-28 melanoma): 1790 nM
TGI (SK-MEL-28 melanoma): 3270 nM
GI50 (SK-MEL-5 melanoma): 1660 nM
TGI (SK-MEL-5 melanoma): 3050 nM
GI50 (SK-OV-3 ovarian): 1870 nM
TGI (SK-OV-3 ovarian): 3330 nM
GI50 (SN12C renal): 1540 nM
TGI (SN12C renal): 3030 nM
GI50 (SNB-19 CNS): 1640 nM
TGI (SNB-19 CNS): 3160 nM
GI50 (SNB-75 CNS): 1390 nM
TGI (SNB-75 CNS): 2810 nM
GI50 (SR leukemia): 347 nM
TGI (SR leukemia): 1270 nM
GI50 (SW-620 colon): 1380 nM
TGI (SW-620 colon): 2960 nM
GI50 (T-47D breast): 1740 nM
TGI (T-47D breast): 3820 nM
GI50 (TK-10 renal): 1620 nM
TGI (TK-10 renal): 3130 nM
GI50 (U251 CNS): 1560 nM
TGI (U251 CNS): 3010 nM
GI50 (UACC-257 melanoma): 2030 nM
TGI (UACC-257 melanoma): 3570 nM
GI50 (UACC-62 melanoma): 1750 nM
TGI (UACC-62 melanoma): 3270 nM
GI50 (UO-31 renal): 1370 nM
TGI (UO-31 renal): 2760 nM
